Reference: paper PMC3214022, “Plasmodium falciparum Parasites Are Killed by a Transition State Analogue of Purine Nucleoside Phosphorylase in a Primate Animal Model” (PLoS ONE, 2011)
Several values for one entry are separate records, joined by “and”; a condition that tells them apart may be missing. Equal values may be shown once.

How the values were obtained:
[1] = tested on: P. falciparum (FVO strain); assay: Efficacy study: parasitaemia in infected Aotus monkeys (thick blood smears); format: in vivo, Aotus lemurinus lemurinus; settings: for Parasitaemia: oral 50 mg kg^−1 twice a day for 7 days, monkeys ITM 1-3 = c3-c5
Method: Laboratory bred Aotus lemurinus lemurinus monkeys (0.75–0.89 kg) were maintained as described. […] Blood samples were collected before the treatment started (t = 0), 0.05 h, 0.5 h, 1 h, 2 h, 6 h, 24 h, 48 h, and 6, 12 and 18 days after the first dose from each monkey and processed as described below. Pharmacokinetic parameters were calculated using PKSolver. For efficacy studies, Aotus monkeys were inoculated intravenously with 5×10^6 parasites of the FVO strain of P. falciparum in an approved treatment protocol. […] Parasitaemia was determined by Giemsa-stained thick blood smears prepared daily from the marginal ear vein [41]. Blood samples were collected from each monkey and transferred to tubes containing lithium heparin, centrifuged and both plasma and blood cells were frozen at −80 °C until analysis. Animals received a physical examination and blood chemistry profiles were monitored after treatment as described previously. Any monkey not responding appropriately to treatment was cured of its infection with mefloquine (40 mg kg^−1). […] The day of clearance is defined as the first of three consecutive days in which the thick blood films are parasite negative. The day of recrudescence is the first of three consecutive days of positive thick blood films after a period of clearance. Suppression is defined as a transient decrease in the parasite count post-treatment without clearance.

[2] = tested on: P. falciparum infected-erythrocytes; assay: Polyamine and purine levels in cultured cells after BCX4945 treatment (HPLC, UPLC/MS/MS); format: cell-based, Plasmodium falciparum; settings: 5 µM BCX4945, 24 h
Method: Polyamines from 0.5 M PCA extracts were analyzed as the dansyl-derivatives by HPLC/fluorescence on a Waters Millennium system. Protein concentration was determined with a bicinchoninic acid (BCA) protein assay kit according to the manufacturer's instructions (Pierce) using BSA as a standard. Data from biological samples were normalized to the protein content.
Samples from blood cells, plasma and media were extracted and analyzed in duplicate. […] Samples were incubated for 20 min at 4 °C and neutralized with 5 M KOH at 10∶1 (v/v, HClO4/KOH) for 20 min at 4 °C. Plates were centrifuged (10 min at 4,000 rpm, 4°C) and supernatants were filtered through a MultiScreen® Filter Plate with Ultracel®-10 Membrane (Millipore). Metabolite and inhibitor levels were quantified by UPLC/MS/MS using a Xevo TQ mass spectrometer (Waters). […] Quantitative determination was performed in ESI positive-ion mode using multiple-reaction monitoring (MRM) mode. The ESI capillary voltage was 0.3 kV, source temperature was set at 150 °C and desolvation temperature at 450 °C. Data acquisition and analysis were carried out by MassLynx V4.1 and QuanLynx software (Waters). The concentration of the metabolites was calculated by interpolation of the observed analyte/internal standard peak-area ratio with the corresponding calibration curve.

[3] = tested on: P. falciparum-infected erythrocytes; assay: Metabolic labeling with [3H]inosine or [3H]hypoxanthine and HPLC analysis; format: cell-based, Plasmodium falciparum; settings: 10 µM BCX4945, 1 h labeling
Text: Samples were extracted with perchloric acid (PCA), neutralized and analyzed by HPLC as described.

P. falciparum cultures = assay: Inosine and hypoxanthine rescue assay; format: cell-based, Plasmodium falciparum; settings: 15 µM BCX4945, hypoxanthine or inosine up to 200 µM, 72 h
Method: Synchronized, schizont stage parasites were washed in purine-free medium to remove excess hypoxanthine and inoculated into freshly drawn erythrocytes that had been washed and resuspended in purine-free medium. The schizont stage parasites were cultured in purine-free medium for 24 h to further reduce hypoxanthine inside the cell. […] Parasite viability was determined by DNA quantitation as described by Quashie and colleagues. For each condition, two independent experiments were carried out in triplicate.

[4] = oral 50 mg kg^−1 twice a day for seven days

Q: Which Parasitaemia ([1]; day 1 post-treatment) does the source give for Nc1nc2c(CN3CC(O)C(CO)C3)c[nH]c2c(=O)[nH]1 (stereo not shown) [BCX4945, 4′-deaza-1′-aza-2′-deoxy-1′-(9-methylene)-Immucillin-G] here?
A: 0 Parasites per µl×10^3

Q: What about the Parasitaemia ([1]; day of treatment 6) of the same molecule?
A: 0 Parasites per µl×10^3

Q: What about the Parasitaemia ([1]; day −1 (before treatment)) of the same molecule?
A: 0.7 Parasites per µl×10^3 and 0.5 Parasites per µl×10^3

Q: What about the “clearance of P. falciparum infection” value [1, 4] of the same molecule?
A: cleared P. falciparum infections between the fourth and the seventh day of treatment

Q: And the “parasitaemia cleared, of the original infection” value [1, 4]?
A: > 99.99%

Q: What about the “time monkeys remained parasite-negative post-treatment” value [1, 4] of the same molecule?
A: up to nine days

Q: And the “response to treatment (category)” value ([1]; oral BCX4945, Aotus model)?
A: clearance and recrudescence

Q: And the “Adenosine, cell pellet” value [2]?
A: 10±4 nmoles/mg protein

Q: And the “Adenosine, supernatant” value [2]?
A: 0.4±0.2 (0.08) µM

Q: And the “BCX4945 level, cell pellet” value [2]?
A: 20±6 (0.004) nmoles/mg protein

Q: What about the “BCX4945 level, supernatant” value [2] of the same molecule?
A: 5±0.6 (0.0002) µM

Q: And the “Hypoxanthine, cell pellet” value [2]?
A: 0 (0.007) nmoles/mg protein

Q: What about the “Hypoxanthine, supernatant” value [2] of the same molecule?
A: 0 (0.004) µM

Q: And the “Inosine, cell pellet” value [2]?
A: 19±5 nmoles/mg protein

Q: And the “Inosine, supernatant” value [2]?
A: 60 µM and 61±5 (0.0001) µM

Q: What about the “MTA, cell pellet” value [2] of the same molecule?
A: 0.6±0.1 nmoles/mg protein

Q: And the “MTA, supernatant” value [2]?
A: 0 µM

Q: What about the “MTI, cell pellet” value [2] of the same molecule?
A: 0.6±0.1 nmoles/mg protein

Q: What about the “MTI, supernatant” value [2] of the same molecule?
A: 0.3±0.1 (0.03) µM

Q: What about the “Putrescine, cell pellet” value [2] of the same molecule?
A: 0.2±0.1 (0.01) nmoles/mg protein

Q: And the “Spermidine, cell pellet” value [2]?
A: 1.1±0.3 (0.02) nmoles/mg protein

Q: And the “Spermine, cell pellet” value [2]?
A: 0.07±0.03 (0.01) nmoles/mg protein

Q: What about the “[3H]hypoxanthine incorporation into purine derivatives” value [3] of the same molecule?
A: continues at reduced levels

Q: And the “[3H]inosine incorporation into the purine pool” value ([3]; schizont and trophozoite stages)?
A: complete inhibition

Q: What about the “rescue of growth by purine supplementation” value (P. falciparum cultures) of the same molecule?
A: Hypoxanthine, but not inosine, can bypass PNP inhibition
